# Read-outs that look alike come from different tables or passages of the source.
# Experiments:
# [1] = ORAC (Oxygen Radical Absorbance Capacity) assay with fluorescein and AAPH; type: biochemical; details: for ORACFL value expressed per mg: recalculated from Ou et al., 2001; for ORAC value: fluorescein, AAPH 4 mM, 37° C.
# Protocol: The ORAC assay was carried out at 37° C. on a FLUOstar OPTIMA spectrofluorimeter (BGM LABTECH, Germany) at 485 nm excitation and 520 nm emission, using the method of Ou et al. (32) with minor modifications. Briefly, in the final assay mixture, fluorescein (FL) (0.05 μM) was used as a target of free radical attack, with AAPH (4 mM) as a peroxyl radical generator. Trolox (1 μM) was used as a control standard and phosphate buffer as a blank. The concentrations of tested compounds in the assay mixture ranged from 0.025 μM to 2 μM. All substances were dissolved and diluted with 75 mM Na-phosphate buffer pH 7; PCB solution was made by dissolving the compound first in ethanol and then bringing the solution to the desired concentration with the buffer. All samples were run in triplicate. Fluorescence was recorded every 5 min after AAPH was added. Final results (ORAC values) were calculated using the differences in the areas under the fluorescence decay curves (AUC) between the sample and blank and expressed as Trolox equivalents: ORAC value=[(AUCsample−AUCblank)/(AUCtrolox−AUCblank)]×(molaritytrolox/molaritysample)
# To evaluate the antioxidant capacity of the extract in terms of the ORAC test, we used the same methodology we used to test the ORAC for PC and PCB. In order to test both the water soluble and the lipid soluble components of the AFA extract, we first prepared the two water and lipid soluble extracts, as follows.
# Preparation of the Water Soluble Extract • Weigh 10 mg of extract in 1 ml of distilled water and homogenize for 1 min through a mechanical potter. • Centrifuge at 2500 rpm for 10′ at 4° C. to remove cellular debris. • Collect the supernatant and resuspend the pellet in 1 ml of water. • Homogenize for 1 min with a mechanical potter. • Centrifuge at 2500 rpm for 10′ at 4° C. • Collect the supernatant and mix with that obtained from the first water extraction. • Preserve the water extract (with a blue color for the presence of the PC) at +4 o-20° C.
# Preparation of the Lipid Soluble Extract • Resuspend the pellet obtained from the previous extraction in 1 ml of acetone. • Homogenize for 1 min with a mechanical potter. • Centrifuge at 2500 rpm for 10′ at 4° C. • Collect the supernatant and resuspend the pellet in 1 ml of acetone. • Homogenize for 1 min with a mechanical potter. • Centrifuge at 2500 rpm for 10′ at 4° C. • Collect the supernatant and mix with that obtained from the first extraction with acetone. • Preserve the lipophilic extract (with an orange color for the presence of carotenes) at +4°-20° C.
# [2] = Ou et al., 2001; cited from earlier work
# [3] = tested on: Jurkat cells; assay: Intracellular dichlorofluorescein fluorescence in Jurkat cells oxidized with H2O2; type: cell-based
# Protocol: Starting from the Basic extract, and following the methodology already described, we have purified the AFA-phycocyanin, with its C-PC/PEC complex, to test its antioxidant properties on live cultured cells. The Jurkat cells (immortalized line of leucemia T-lymphocytes) have been subjected to oxidative stress with 500 μM H2O2, together or without increasing dosages of AFA-PC and PCB. The fluorescence emitted by the intracellular probe (dichlorofluorescein), following oxydation from H2O2, has been recorded after 30 minutes of incubation with H2O2 through a fluorimeter (exc. at 492 nm and emission at 520 nm). By incubating cells with both AFA-PC (range 0.1-10 μM) and 500 μM H2O2 for 30 minutes we observe a dose-dependent protective effect with a reduction of intracellular fluorescence induced by H2O2, with an IC50 of 0.5 μM, and a 100% inhibition (non-oxidized cells) at 10 μM (FIG. 13).
# The antioxidant properties of the whole PC, composed of C-PC and PEC, resides in its chromophores, which are phycocyanibilin (PCB) for C-PC and both PCB and PVB (phycoviolobilin) for PEC. We have purified the C-PC chromophore PCB, to test it on cultured cells oxidized with H2O2 (range FCB 0.1-40 μM). Also in this case we observe a dose-dependent antioxidant effect with an IC50 of 0.5 μM, and a 100% inhibition (non-oxidized cells) at 40 μM (FIG. 13).
# Most importantly, to evaluate the cellular absorption of PC and PCB, both compounds have been pre-incubated for 2 hrs. with the cells; afterwards, the medium has been washed, to exclude any unabsorbed PC and PCB, and the cells have been oxidized for 30 min. with H2O2. As shown by the FIG. 14, there is a dose-dependent inhibition of intracellular fluorescence. This means that the cell is able to retain both antioxidant molecules, either in the membrane or in the cytoplasm.
# [4] = target: T1, COX-2 (Homo sapiens, UniProt P35354); assay: COX Inhibitor Screening Assay (Cayman), COX-2; type: biochemical; details: 0-15 μM
# T1 construct: purchased Cayman
# T1 sequence (P35354 18-604): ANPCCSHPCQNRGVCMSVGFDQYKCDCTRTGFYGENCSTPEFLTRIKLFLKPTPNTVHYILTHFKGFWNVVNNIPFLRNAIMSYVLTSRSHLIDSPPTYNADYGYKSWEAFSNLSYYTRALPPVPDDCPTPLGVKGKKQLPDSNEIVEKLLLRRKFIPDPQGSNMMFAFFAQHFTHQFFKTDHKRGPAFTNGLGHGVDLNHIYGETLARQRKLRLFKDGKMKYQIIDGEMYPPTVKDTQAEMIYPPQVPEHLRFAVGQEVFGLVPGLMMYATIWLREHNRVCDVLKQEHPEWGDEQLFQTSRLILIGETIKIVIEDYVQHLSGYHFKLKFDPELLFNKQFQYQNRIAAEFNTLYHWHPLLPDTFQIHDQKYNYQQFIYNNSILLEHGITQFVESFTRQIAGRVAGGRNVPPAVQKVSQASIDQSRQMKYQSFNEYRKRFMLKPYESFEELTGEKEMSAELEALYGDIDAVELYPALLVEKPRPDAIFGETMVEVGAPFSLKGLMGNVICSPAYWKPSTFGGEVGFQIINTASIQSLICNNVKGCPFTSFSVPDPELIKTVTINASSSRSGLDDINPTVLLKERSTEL
# Protocol: (§1) Given that the phycocyanins from Klamath AFA algae are different from the ones from Spirulina, ands that no test has ever been done on their effect on the COX enzymes, we decided to perform such test through the immunoenzymatic kit “COX Inhibitor Screening Assay” of the Cayman company. We thus evaluated the COX-1 and COX-2 inhibition by the AFA extract (both the water soluble part in water, and the lipid soluble in acetone; range 25-200 μg/ml); by the pure PC (0.03-3 μM) and PCB (0-15 μM). The results are shown in FIG. 29, presenting the graphic of the percent activity of COX-1 and COX-2 at the different concentrations of AFA extract, PC and PCB.
# [5] = target: T2, COX-1 (Ovis aries, UniProt P05979); assay: COX Inhibitor Screening Assay (Cayman), COX-1; type: biochemical
# T2 construct: purchased Cayman
# T2 sequence (P05979 25-600): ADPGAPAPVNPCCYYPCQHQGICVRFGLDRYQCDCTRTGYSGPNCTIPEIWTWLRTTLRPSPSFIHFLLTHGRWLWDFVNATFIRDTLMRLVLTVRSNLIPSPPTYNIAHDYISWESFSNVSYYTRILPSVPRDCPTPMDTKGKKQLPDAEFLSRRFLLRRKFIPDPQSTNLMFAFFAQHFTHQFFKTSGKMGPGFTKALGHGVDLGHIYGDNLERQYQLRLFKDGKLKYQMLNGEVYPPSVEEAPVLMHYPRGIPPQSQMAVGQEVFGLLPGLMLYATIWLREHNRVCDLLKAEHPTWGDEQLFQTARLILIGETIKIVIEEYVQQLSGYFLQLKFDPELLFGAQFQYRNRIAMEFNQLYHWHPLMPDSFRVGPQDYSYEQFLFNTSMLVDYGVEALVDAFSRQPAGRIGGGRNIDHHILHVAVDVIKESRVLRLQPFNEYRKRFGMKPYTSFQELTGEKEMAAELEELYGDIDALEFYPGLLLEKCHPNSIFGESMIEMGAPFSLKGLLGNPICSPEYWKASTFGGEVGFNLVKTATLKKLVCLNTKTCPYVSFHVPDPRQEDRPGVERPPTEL
# Protocol: as §1
# [6] = tested on: human plasma oxidized by CuCl2; assay: MDA (TBA test) formation in human plasma oxidized by CuCl2; details: read-out: IC50, metal-induced oxidation of plasma lipids (MDA); plasma incubated 2 hours at 37° C. with CuCl2 (FIG. 9A panel B)
molecule,measurement,setting,value
Oc1cc(O)c2c(c1)O[C@H](c1ccc(O)c(O)c1)[C@@H](O)C2 [(+)-catechin],ORACFL value expressed per mg,[1],23.3 μmol Trolox/mg compound
same,ORACFL value,[2],6.76 μmol Trolox/μmol compound
O=C1O[C@H]([C@@H](O)CO)C(O)=C1O [AA],ORAC value,[1],0.75 Trolox equiv.
"N[C@@H](CCC(=O)N[C@@H](CS)C(=O)NCC(=O)O)C(=O)O [GSH, reduced glutathione]",ORAC value,[1],0.57 Trolox equiv.
O=c1c(O)c(-c2ccc(O)c(O)c2)oc2cc(O)cc(O)c12 [quercetin],ORACFL value expressed per mg,[1],24.0 μmol Trolox/mg compound
same,ORACFL value,[2],7.28 μmol Trolox/μmol compound
phycocyanobilin [PCB],ORAC value expressed per mg,[1],37.0 μmol Trolox/mg
same,ORAC value,[1],22.18 Trolox equiv.
same,inhibition of intracellular fluorescence,"[3]; 40 μM, together with H2O2",100%
same,oxidative effect (increase of intracellular fluorescence),[3]; incubated 30 minutes with cells without H2O2,do not have any oxidative effect
same,oxidative effect (increase of intracellular fluorescence),[3]; incubated 2 hrs. with cells,did not produce any oxidative effect
same,IC50,"[3]; incubated together with 500 μM H2O2 for 30 minutes (FIG. 13), read-out: IC50, reduction of intracellular fluorescence induced by H2O2",500 nM
same,"protection, absorption test","[3]; pre-incubated 2 hrs., medium washed, then H2O2 30 min (FIG. 14)",more than 90%
same,IC50,"[3]; pre-incubated 2 hrs., medium washed, then H2O2 30 min (FIG. 14), read-out: IC50, inhibition of intracellular fluorescence, absorption test",1900 nM
same,COX-2 inhibition,[4],scarcely inhibitor of the COX-2
same,effect on COX-1 activity,[5],increases the COX-1 activity
same,IC50,[6],~160 nM
